Measured values as given in ChEMBL document CHEMBL1135216, “New 2-(1-adamantylcarbonyl)pyridine and 1-acetyladamantane thiosemicarbazones-thiocarbonohydrazones: cell growth inhibitory, antiviral and antimicrobial activity evaluation” (Bioorg Med Chem Lett, 2002).
Converted amounts (≈) assume the structure as drawn.

Experiments:
[1] = tested on: CCRF-CEM; test: Tested for the inhibitory concentration against cell growth of human leukemic cell line CCRF-CEM; assay type: functional
[2] = tested on: CCRF-CEM; test: Tested for the concentration required to reduce the viability of leukemia cells by 50% against cell growth of T cell leukemia cell line CCRF-CEM using MTT assay; assay type: functional; conditions: Homo sapiens
[3] = tested on: CCRF-CEM; test: Tested for the inhibitory concentration against cell growth of Tcell leukemic cell line CCRF-CEM using MTT assay; assay type: functional; conditions: Homo sapiens
[4] = tested on: E6SM; test: Tested for antiviral activity against VSV-virus in human embryonic skin muscle fibroblasts; assay type: functional; conditions: Muscle tissue
[5] = tested on: E6SM; test: Tested for antiviral activity against herpes simplex virus type 1(KOS) in E6SM cell line(human embryonic skin-muscle fibroblasts); assay type: functional
[6] = tested on: E6SM; test: Tested for antiviral activity against thymidine kinase-deficient (TK-HSV-2G) virus in E6SM cell line(human embryonic skin-muscle fibroblasts); assay type: functional
[7] = tested on: E6SM; test: Tested for antiviral activity against vaccinia virus in human embryonic skin muscle fibroblast; assay type: functional; conditions: Muscle tissue
[8] = tested on: HeLa; test: The compound was tested for antiviral activity against VSV-virus in human epithelial cells; assay type: functional
[9] = tested on: E6SM; test: Tested for cytotoxic activity in human embryonic skin muscle fibroblast (E6SM); assay type: functional; conditions: Muscle tissue
[10] = tested on: E6SM; test: Antiviral activity against thymidine kinase-deficient (TK-HSV-1)virus in E6SM cell line(human embryonic skin-muscle fibroblasts); assay type: functional
[11] = tested on: Escherichia coli; test: Tested for the antimicrobial activity against Escherichia coli ATCC 25922; assay type: functional
[12] = tested on: HEL; test: Tested for cytotoxic activity in human embryonic lung fibroblast (HEL); assay type: functional
[13] = tested on: HEL; test: Tested for antiviral activity against human cytomegalovirus (AD-169) in human embryonic lung fibroblasts; assay type: functional
[14] = tested on: HEL; test: Tested for antiviral activity against thymidine kinase deficient Varicella zoster virus in human embryonic lung fibroblasts; assay type: functional
[15] = tested on: HEL; test: Tested for antiviral activity against thymidine kinase wild type Varicella zoster virus in human embryonic lung fibroblast; assay type: functional
[16] = tested on: HeLa; test: Tested for antiviral activity against coxsackie-B4 virus in human epithelial cell line; assay type: functional
[17] = tested on: HL-60; test: Tested for the inhibitory concentration against cell growth of human leukemic cell line HL60; assay type: functional
[18] = tested on: HL-60; test: Tested for the concentration required to reduce the viability of leukemia cells by 50% against cell growth of HL60 acute myeloid leukemia using MTT assay; assay type: functional; conditions: Homo sapiens, read-out: LC50 (the source's name)
[19] = tested on: HL-60; test: Tested for the inhibitory concentration against cell growth of HL60 acute myeloid leukemia using MTT assay; assay type: functional; conditions: Homo sapiens
[20] = tested on: HeLa; test: Tested for cytotoxic activity in human epithelial cell line (HeLa); assay type: functional
[21] = tested on: HuT78; test: Tested for the inhibitory concentration against cell growth of human leukemic cell line HuT78; assay type: functional
[22] = tested on: HuT78; test: Tested for the concentration required to reduce the viability of leukemia cells by 50% against cell growth of HuT78 T lymphoma using MTT assay; assay type: functional; conditions: Homo sapiens
[23] = tested on: HuT78; test: Tested for the inhibitory concentration against cell growth of HuT78 T lymphoma using MTT assay; assay type: functional; conditions: Homo sapiens
[24] = tested on: K562; test: Tested for the concentration required to reduce the viability of leukemia cells by 50% against cell growth of K562 chronic myeloid leukemia using MTT assay; assay type: functional; conditions: Homo sapiens, read-out: LC50 (the source's name)
[25] = tested on: K562; test: Tested for the inhibitory concentration against cell growth of K562 chronic myeloid leukemia using MTT assay; assay type: functional; conditions: Homo sapiens
[26] = tested on: K562; test: Tested for the inhibitory concentration against cell growth of human leukemic cell line K562; assay type: functional
[27] = tested on: Klebsiella pneumoniae; test: Tested for the antimicrobial activity against Klebsiella pneumoniae ATCC 13883; assay type: functional
[28] = tested on: MOLT-4; test: Tested for the inhibitory concentration against cell growth of human leukemic cell line MOLT-4; assay type: functional
[29] = tested on: MT4; test: Tested for effective concentration required to protect MT-4 cells against the cytopathicity of HIV-1(IIIB); assay type: functional; conditions: Homo sapiens, read-out: LC50 (the source's name)
[30] = tested on: MT4; test: Tested for effective concentration required to protect MT-4 cells against the cytopathicity of HIV-2(ROD); assay type: functional, cell-based; conditions: Homo sapiens
[31] = tested on: MOLT-4; test: Tested for the concentration required to reduce the viability of leukemia cells by 50% against cell growth of T cell leukemia cell line MOLT-4 using MTT assay; assay type: functional; conditions: Homo sapiens
[32] = tested on: MOLT-4; test: Tested for the inhibitory concentration against cell growth of Tcell leukemic cell line MOLT-4 using MTT assay; assay type: functional; conditions: Homo sapiens
[33] = tested on: RPMI-8226; test: Tested for the inhibitory concentration against cell growth of human leukemic cell line RPMI8226; assay type: functional
[34] = tested on: RPMI-8226; test: Tested for the concentration required to reduce the viability of leukemia cells by 50% against cell growth of RPMI8226 multiple myeloma using MTT assay; assay type: functional; conditions: Homo sapiens, read-out: LC50 (the source's name)
[35] = tested on: RPMI-8226; test: Tested for the inhibitory concentration against cell growth of […] multiple myeloma using MTT assay; assay type: functional; conditions: Homo sapiens
[36] = tested on: Staphylococcus aureus; test: Tested for the antimicrobial activity against Staphylococcus aureus ATCC 6538; assay type: functional
[37] = tested on: Staphylococcus epidermidis; test: Tested for the antimicrobial activity against Staphylococcus epidermidis ATCC 12228; assay type: functional
[38] = tested on: Staphylococcus hominis; test: Tested for the antimicrobial activity against Staphylococcus hominis ATCC 27844; assay type: functional
[39] = tested on: Vero; test: Tested for cytotoxic activity in African green monkey kidney cells (Vero); assay type: functional; conditions: Chlorocebus sabaeus
[40] = tested on: Vero; test: Tested for antiviral activity against Punta toro virus in African green monkey kidney cell (Vero); assay type: functional; conditions: Chlorocebus sabaeus
[41] = tested on: Vero; test: Tested for antiviral activity against Reo-1 virus in African green monkey kidney cell (Vero); assay type: functional; conditions: Chlorocebus sabaeus
[42] = tested on: Vero; test: Tested for antiviral activity against Sindbis virus in African green monkey kidney cell (Vero); assay type: functional; conditions: Chlorocebus sabaeus
[43] = tested on: Vero; test: Tested for antiviral activity against coxsackie B-4 virus in African green monkey kidney cell (Vero); assay type: functional; conditions: Chlorocebus sabaeus
[44] = tested on: Vero; test: Tested for antiviral activity against parainfluenza virus in african green monkey kidney cell (Vero); assay type: functional; conditions: Chlorocebus sabaeus
[45] = tested on: MT4; test: Tested for cytotoxic concentration required to reduce the viability of MT-4 cells by 50%; assay type: functional, cell-based; conditions: Homo sapiens, read-out: EC50 (the source's name)

## C/C(=N/N=C(/S)NN)C12CC3CC(CC(C3)C1)C2
[1]
  GI50: 36.8 µM
[2]
  TGI: 100 µM
[3]
  TGI: 100 µM
[4]
  MIC: > 16 µg/mL
[5]
  MIC: > 16 µM
[6]
  MIC: > 16 µg/mL
[7]
  MIC: > 16 µg/mL
[8]
  MIC: > 16 µg/mL
[9]
  MCC: > 80 µg/mL
[10]
  MIC: > 16 µg/mL
[11]
  MIC: > 3760 µg/mL
[12]
  MCC: > 20 µg/mL
[13]
  MIC: > 5 µg/mL
[14]
  MIC: > 20 µg/mL
[15]
  MIC: 10.5 µg/mL (≈ 39.4 µM)
[16]
  MIC: > 16 µg/mL
[17]
  GI50: 48.7 µM
[18]
  CC50: 100 µM
[19]
  TGI: 92 µM
[20]
  MCC: 80 µg/mL
[21]
  GI50: 20.5 µM
[22]
  TGI: 100 µM
[23]
  TGI: 100 µM
[24]
  CC50: 100 µM
[25]
  TGI: 68.4 µM
[26]
  GI50: 14.7 µM
[27]
  MIC: > 3760 µg/mL
[28]
  GI50: 22.2 µM
[29]
  EC50: > 7 µM
[30]
  EC50: > 7 µM
[31]
  TGI: 100 µM
[32]
  TGI: 100 µM
[33]
  GI50: 94.2 µM
[34]
  CC50: 100 µM
[35]
  TGI: 100 µM
[36]
  MIC: > 3760 µg/mL
[37]
  MIC: > 3760 µg/mL
[38]
  MIC: > 3760 µg/mL
[39]
  MCC: 80 µg/mL
[40]
  MIC: > 80 µg/mL
[41]
  MIC: > 80 µg/mL
[42]
  MIC: > 80 µg/mL
[43]
  MIC: > 80 µg/mL
[44]
  MIC: > 80 µg/mL
[45]
  CC50: 7.1 µM

## C/C(=N/N=C(/S)N/N=C(\S)c1ccc(Cl)cc1Cl)C12CC3CC(CC(C3)C1)C2
[1]
  GI50: 5.7 µM
[2]
  TGI: 100 µM
[3]
  TGI: 100 µM
[4]
  MIC: > 16 µg/mL
[5]
  MIC: > 16 µg/mL
[6]
  MIC: 9.6 µg/mL (≈ 21.1 µM)
[7]
  MIC: > 16 µg/mL
[8]
  MIC: > 3.2 µg/mL
[9]
  MCC: 80 µg/mL
[10]
  MIC: 9.6 µg/mL (≈ 21.1 µM)
[11]
  MIC: > 2130 µg/mL
[12]
  MCC: 5 µg/mL
[13]
  MIC: > 2 µg/mL
[14]
  MIC: > 2 µg/mL
[15]
  MIC: > 2 µg/mL
[16]
  MIC: > 3.2 µg/mL
[17]
  GI50: 2.4 µM
[18]
  CC50: 10 µM
[19]
  TGI: 6.2 µM
[20]
  MCC: 16 µg/mL
[21]
  GI50: 8.1 µM
[22]
  TGI: 100 µM
[23]
  TGI: 100 µM
[24]
  CC50: 100 µM
[25]
  TGI: 100 µM
[26]
  GI50: 24.7 µM
[27]
  MIC: > 2130 µg/mL
[28]
  GI50: 32.4 µM
[29]
  EC50: > 2 µM
[30]
  EC50: > 2 µM
[31]
  TGI: 100 µM
[32]
  TGI: 100 µM
[33]
  GI50: 3.6 µM
[34]
  CC50: 100 µM
[35]
  TGI: 29.3 µM
[36]
  MIC: 133 µg/mL (≈ 292 µM)
[37]
  MIC: 133 µg/mL (≈ 292 µM)
[38]
  MIC: 133 µg/mL (≈ 292 µM)
[39]
  MCC: 16 µg/mL
[40]
  MIC: > 3.2 µg/mL
[41]
  MIC: > 3.2 µg/mL
[42]
  MIC: > 3.2 µg/mL
[43]
  MIC: > 3.2 µg/mL
[44]
  MIC: > 3.2 µg/mL
[45]
  CC50: 2.4 µM
